Assay results as given in patent publication EP0595557A1, “New substituted azetidinones as anti-inflammatory and antidegenerative agents” (MERCK & CO. INC., priority 1992, dated 1994).

Biological target: T1, Human Polymorphonuclear Leukocyte Elastase (Homo sapiens, UniProt P08246)
T1 construct: Crude extract of human polymorphonuclear leukocytes (PMN) containing elastase activity; from tissue; host or cells: human polymorphonuclear leukocytes (crude extract)
T1 sequence (P08246 30-267): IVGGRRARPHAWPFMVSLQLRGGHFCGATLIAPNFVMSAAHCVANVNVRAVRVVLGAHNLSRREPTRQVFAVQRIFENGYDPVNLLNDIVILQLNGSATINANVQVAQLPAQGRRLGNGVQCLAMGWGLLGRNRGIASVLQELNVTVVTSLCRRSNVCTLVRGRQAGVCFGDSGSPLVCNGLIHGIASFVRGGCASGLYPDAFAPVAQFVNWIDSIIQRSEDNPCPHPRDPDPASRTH
Assay: Enzyme assay for inhibition of human polymorphonuclear leukocyte elastase via hydrolysis of Boc-AAPAN or Boc-AAPVN
Assay type: biochemical
Conditions: pH 7.5, second order rate constant for inactivation of the enzyme, expressed to the nearest thousand, read-out: Kobs/[I]
Summary of the method: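 Crude human PMN extract as enzyme source, with 0.2 mM Boc-AAPAN in 0.05M TES buffer pH 7.5. Inhibitors in DMSO were added to substrate before the extract, and rate was followed as ΔOD/min at 410 mµ. Values are kobs/I, the second-order inactivation rate constant (per mole per second).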

Row | SMILES | kinact/KI
1 | CCC[C@@H](NC(=O)N1C(=O)C(CC)(CC)[C@@H]1Oc1ccc(C(=O)N(C)CCN(C)Cc2ccc(C(F)(F)F)cc2)cc1)c1ccc(C)cc1 [Compound 180] | 905000 M⁻¹ s⁻¹
2 | CCC[C@@H](NC(=O)N1C(=O)C(CC)(CC)[C@@H]1Oc1ccc(C(=O)N(C)CCN(C)C(C)=O)cc1)c1ccc(C)cc1 [Compound 105] | 2.4e+06 M⁻¹ s⁻¹
3 | CCC[C@@H](NC(=O)N1C(=O)C(CC)(CC)[C@@H]1Oc1ccc(CC(=O)N2CCN(C)CC2)cc1)c1ccc(C)cc1 [Compound 41] | 974000 M⁻¹ s⁻¹
4 | CCC[C@@H](NC(=O)N1C(=O)C(CC)(CC)[C@@H]1Oc1ccc(C(=O)N(C)C2CCCN(CC)C2)cc1)c1ccc(C)cc1 (stereo partly shown) [Compound 172] | 1.54e+06 M⁻¹ s⁻¹
5 | CCC[C@@H](NC(=O)N1C(=O)C(CC)(CC)[C@@H]1Oc1ccc(CC(=O)OCC(C)(C)N(C)C)cc1)c1ccc(C)cc1 [Compound 37] | 2.1e+06 M⁻¹ s⁻¹
6 | CCC[C@@H](NC(=O)N1C(=O)C(CC)(CC)[C@@H]1Oc1ccc(CC(=O)N2CCOCC2)cc1)c1ccc(C)c(C(=O)N(CCC)CCC)c1 [Compound 294] | 255000 M⁻¹ s⁻¹
7 | CCC[C@@H](NC(=O)N1C(=O)C(CC)(CC)[C@@H]1Oc1ccc(C(=O)NCCN2CCOCC2)cc1)c1ccc(C)cc1 [Compound 78] | 1.84e+06 M⁻¹ s⁻¹
8 | CCC[C@@H](NC(=O)N1C(=O)C(CC)(CC)[C@@H]1Oc1ccc(C(=O)O[C@@H](C)C(=O)N(CC)CC)cc1)c1ccc(C)cc1 [Compound 12, 2-(diethylamino)-1-methyl-2-oxoethyl[S-(R*,S*)]-4-((3,3-diethyl-1-(((1-(4-methyl-phenyl)butyl)amino)carbonyl)-4-oxo-2-azetidinyl)oxy) benzoate] | 2.82e+06 M⁻¹ s⁻¹
9 | CCC[C@@H](NC(=O)N1C(=O)C(CC)(CC)[C@@H]1Oc1ccc(C(=O)N(C)CCN2CCS(=O)(=O)CC2)cc1)c1ccc(C)cc1 [Compound 112] | 1.6e+06 M⁻¹ s⁻¹
10 | CCC[C@@H](NC(=O)N1C(=O)C(CC)(CC)[C@@H]1Oc1ccc(C(=O)N2CCN(CCC)CC2)cc1)c1ccc(C)cc1 [Compound 253] | 1.77e+06 M⁻¹ s⁻¹
11 | CCC[C@@H](NC(=O)N1C(=O)C(CC)(CC)[C@@H]1Oc1ccc(CC(=O)NC(C)C(=O)N(CCO)CCO)cc1)c1ccc(C)cc1 (stereo partly shown) [Compound 51] | 939000 M⁻¹ s⁻¹
12 | CCC[C@@H](NC(=O)N1C(=O)C(CC)(CC)[C@@H]1Oc1ccc(C(=O)N2CCN(Cc3ccccc3)CC2)cc1)c1ccc(C)cc1 [Compound 246] | 5.17e+06 M⁻¹ s⁻¹
13 | CCC[C@@H](NC(=O)N1C(=O)C(CC)(CC)[C@@H]1Oc1ccc(C(=O)N(C)CCN(C)CC2CC2)cc1)c1ccc(C)cc1 [Compound 185] | 1.79e+06 M⁻¹ s⁻¹
14 | CCC[C@@H](NC(=O)N1C(=O)C(CC)(CC)[C@@H]1Oc1ccc(C(=O)NCCN(CC)CC)cc1)c1ccc(C)cc1 [Compound 77] | 1.19e+06 M⁻¹ s⁻¹
15 | CCC[C@@H](NC(=O)N1C(=O)C(CC)(CC)[C@@H]1Oc1ccc(C(=O)N(C)CCN(C)C)c(O)c1)c1ccc(C)cc1 [Compound 310] | 838000 M⁻¹ s⁻¹
16 | CCC[C@@H](NC(=O)N1C(=O)C(CC)(CC)[C@@H]1Oc1ccc(CC(=O)N(C)CCCN(C)Cc2ccccc2)cc1)c1ccc(C)cc1 [Compound 66] | 1.36e+06 M⁻¹ s⁻¹
17 | CCC[C@@H](NC(=O)N1C(=O)C(CC)(CC)[C@@H]1Oc1ccc(C(=O)N(C)CCN(C)C)cc1)c1cccc(OC)c1 [Compound 291] | 1.75e+06 M⁻¹ s⁻¹
18 | CCC[C@@H](NC(=O)N1C(=O)C(CC)(CC)[C@@H]1Oc1ccc(C(=O)N(C)CC(C)N(C)Cc2ccccc2)cc1)c1ccc(C)cc1 (stereo partly shown) [Compound 218] | 2.12e+06 M⁻¹ s⁻¹
19 | CCC[C@@H](NC(=O)N1C(=O)C(CC)(CC)[C@@H]1Oc1ccc(C(=O)N(C)CCN(C)Cc2ccccc2)cc1)c1ccc(OCC)cc1 [Compound 296] | 776000 M⁻¹ s⁻¹
20 | CCC[C@@H](NC(=O)N1C(=O)C(CC)(CC)[C@@H]1Oc1ccc(C(=O)Nc2cccc(N(C)C)c2)cc1)c1ccc(C)cc1 [Compound 111] | 2.29e+06 M⁻¹ s⁻¹
21 | CCC[C@@H](NC(=O)N1C(=O)C(CC)(CC)[C@@H]1Oc1ccc(C(=O)N(C)CCN(C)CCc2ccccc2)cc1)c1ccc(C)cc1 [Compound 153] | 2.8e+06 M⁻¹ s⁻¹
22 | CCC[C@@H](NC(=O)N1C(=O)C(CC)(CC)[C@@H]1Oc1ccc(CC(=O)N(C)CCCC(=O)NS(=O)(=O)c2ccccc2)cc1)c1ccc(C)cc1 [Compound 65] | 1.34e+06 M⁻¹ s⁻¹
23 | CCC[C@@H](NC(=O)N1C(=O)C(CC)(CC)[C@@H]1Oc1ccc(C(=O)N(C)CCN(Cc2ccccc2)Cc2ccccc2)cc1)c1ccc(C)cc1 [Compound 161] | 1.02e+06 M⁻¹ s⁻¹

Row | SMILES | kinact/KI
24 | CCC[C@@H](NC(=O)N1C(=O)C(CC)(CC)[C@@H]1Oc1ccc(C(=O)NCCN2CCC[C@H]2CO)cc1)c1ccc(C)cc1 [Compound 141] | 1.51e+06 M⁻¹ s⁻¹
25 | CCC[C@@H](NC(=O)N1C(=O)C(CC)(CC)[C@@H]1Oc1ccc(C(=O)OCCN(C)Cc2ccccc2)cc1)c1ccc(C)cc1 [Compound 31, 2-[methyl(phenylmethyl)amino]ethyl [S-(R*,S*)]-4-[[3,3-diethyl-1-[[[1-(4-methyl-phenyl)butyl]amino]carbonyl]-4-oxo-2-azetidinyl]oxy]benzoate] | 1.18e+06 M⁻¹ s⁻¹
26 | CCC[C@@H](NC(=O)N1C(=O)C(CC)(CC)[C@@H]1Oc1ccc(C(=O)N2CCN(CC(C)C)CC2)cc1)c1ccc(C)cc1 [Compound 249] | 2.48e+06 M⁻¹ s⁻¹
27 | CCC[C@@H](NC(=O)N1C(=O)C(CC)(CC)[C@@H]1Oc1ccc(C(=O)N(C)CCN(C)Cc2ccc(C#N)cc2)cc1)c1ccc(C)cc1 [Compound 177] | 2.2e+06 M⁻¹ s⁻¹
28 | CCC[C@@H](NC(=O)N1C(=O)C(CC)(CC)[C@@H]1Oc1ccc(CC(=O)NOCc2ccccc2)cc1)c1ccc(C)cc1 [Compound 70] | 2.37e+06 M⁻¹ s⁻¹
29 | CCC[C@@H](NC(=O)N1C(=O)C(CC)(CC)[C@@H]1Oc1ccc(C(=O)OCCN(CC)CC)cc1)c1ccc(C)cc1 [Compound 16, 2-Diethylaminoethyl [S-(R*,S*)]-4-[[3,3-diethyl-1-[[[1-(4-methyl-phenyl)butyl]amino]carbonyl]-4-oxo-2-azetidinyl]oxy]benzoate] | 2.29e+06 M⁻¹ s⁻¹
30 | CCC[C@@H](NC(=O)N1C(=O)C(CC)(CC)[C@@H]1Oc1ccc(CC(=O)OCCCN(C)C)cc1)c1ccc(C)cc1 [Compound 33] | 1.15e+06 M⁻¹ s⁻¹
31 | CCC[C@@H](NC(=O)N1C(=O)C(CC)(CC)[C@@H]1Oc1ccc(C(=O)OCCN(C)C)cc1)c1ccc(C(=O)N2CCOCC2)cc1 [Compound 278] | 135000 M⁻¹ s⁻¹
32 | CCC[C@@H](NC(=O)N1C(=O)C(CC)(CC)[C@@H]1Oc1ccc(C(=O)OCCN2CCN(C)CC2)cc1)c1ccc(C)cc1 [Compound 26, 2-(4-methyl-1-piperazinyl)ethyl[S-(R*,S*)]-4-[[3,3-diethyl-1-[[[1-(4-methyl-phenyl)butyl]amino]carbonyl]-4-oxo-2-azetidinyl]oxy]benzoate] | 4.68e+06 M⁻¹ s⁻¹
33 | CCC[C@@H](NC(=O)N1C(=O)C(CC)(CC)[C@@H]1Oc1ccc(C(=O)N2CCN(c3cccc(Cl)c3)CC2)cc1)c1ccc(C)cc1 [Compound 244] | 2.45e+06 M⁻¹ s⁻¹
34 | CCC[C@@H](NC(=O)N1C(=O)C(CC)(CC)[C@@H]1Oc1ccc(C(=O)NCCn2ncnn2)cc1)c1ccc(C)cc1 [Compound 100] | 2.01e+06 M⁻¹ s⁻¹
35 | CCC[C@@H](NC(=O)N1C(=O)C(CC)(CC)[C@@H]1Oc1ccc(C(=O)N2CC(C)NC(C)C2)cc1)c1ccc(C)cc1 (stereo partly shown) [Compound 146] | 1.52e+06 M⁻¹ s⁻¹
36 | CCC[C@@H](NC(=O)N1C(=O)C(CC)(CC)[C@@H]1Oc1ccc(C(=O)N(C)CCNC2C3CC4CC(C3)CC2C4)cc1)c1ccc(C)cc1 (stereo partly shown) [Compound 221] | 3.01e+06 M⁻¹ s⁻¹
37 | CCC[C@@H](NC(=O)N1C(=O)C(CC)(CC)[C@@H]1Oc1ccc(C(=O)N2CCNCC2)cc1)c1ccc2c(c1)OCO2 [Compound 265a, [S-(R*,S*)]-2-[4-[[(4-Piperazin-1-yl)carbonyl]phenoxy] -((3,3-diethyl-N-[1-(3,4-methylenedioxyphenyl)butyl]-4-oxo-1-azetidinecarboxamide] | 3.25e+06 M⁻¹ s⁻¹
38 | CCC[C@@H](NC(=O)N1C(=O)C(CC)(CC)[C@@H]1Oc1ccc(CC(N)=O)cc1)c1ccc2c(c1)OCO2 [Compound 257] | 2.34e+06 M⁻¹ s⁻¹
39 | CCC[C@@H](NC(=O)N1C(=O)C(CC)(CC)[C@@H]1Oc1ccc(C(=O)N(C)CCN2CCCC(O)C2)cc1)c1ccc(C)cc1 (stereo partly shown) [Compound 124] | 1.96e+06 M⁻¹ s⁻¹
40 | CCC[C@@H](NC(=O)N1C(=O)C(CC)(CC)[C@@H]1Oc1ccc(C(=O)N(C)CCOC(=O)N(C)C)cc1)c1ccc(C)cc1 [Compound 170] | 1.52e+06 M⁻¹ s⁻¹
41 | CCC[C@@H](NC(=O)N1C(=O)C(CC)(CC)[C@@H]1Oc1ccc(C(=O)NCCN2CC3CCC(CC3)C2)cc1)c1ccc(C)cc1 [Compound 98] | 3.04e+06 M⁻¹ s⁻¹
42 | CCC[C@@H](NC(=O)N1C(=O)C(CC)(CC)[C@@H]1Oc1ccc(C(=O)OCC(c2ccccc2)N(C)C)cc1)c1ccc(C)cc1 (stereo partly drawn) [Compound 30, 2-(dimethylamino)-2-phenylethyl [S-(R*,S*)]-4-[[3,3-diethyl-1-[[[1-(4-methylphenyl)butyl]amino]carbonyl]-4-oxo-2-azetidinyl]oxy]benzoate] | 656000 M⁻¹ s⁻¹
43 | CCC[C@@H](NC(=O)N1C(=O)C(CC)(CC)[C@@H]1Oc1ccc(C(=O)OCCCN(C)C)cc1)c1ccc(C)cc1 [Compound 14, 3-Dimethylamino-1-propyl [S-(R*,S*)]-4-[[3,3-diethyl-1-[[[1-(4-methyl-phenyl)butyl]amino]carbonyl]-4-oxo-2-azetidinyl]oxy]benzoate] | 2.86e+06 M⁻¹ s⁻¹
44 | CCC[C@@H](NC(=O)N1C(=O)C(CC)(CC)[C@@H]1Oc1ccc(C(=O)N(C)CCCN(C)Cc2ccccc2)cc1)c1ccc(C)cc1 [Compound 167] | 1.29e+06 M⁻¹ s⁻¹
45 | CCC[C@@H](NC(=O)N1C(=O)C(CC)(CC)[C@@H]1Oc1ccc(C(=O)N(C)c2ccc(C(=O)NS(=O)(=O)c3ccccc3)cc2)cc1)c1ccc(C)cc1 [Compound 176] | 3.23e+06 M⁻¹ s⁻¹
46 | CCC[C@@H](NC(=O)N1C(=O)C(CC)(CC)[C@@H]1Oc1ccc(C(=O)NCCN2CCC(O)C2)cc1)c1ccc(C)cc1 (stereo partly shown) [Compound 131] | 1.11e+06 M⁻¹ s⁻¹
